ChEMBL document CHEMBL1134688, “Synthesis, biological evaluation, and pharmacophore generation of new pyridazinone derivatives with affinity toward alpha(1)- and alpha(2)-adrenoceptors” (J Med Chem, 2001)

Target: Adrenergic receptor alpha-2 (Rattus norvegicus) (UniProt P22086+P19328+P22909)
Assay: Ratio of binding affinity towards Alpha-2 and alpha-1 adrenergic receptor
Format: protein assay

Ratio	SMILES
1.7	COc1ccccc1N1CCN(CCCCCCCn2nc(N3CCN(C(=O)c4ccco4)CC3)ccc2=O)CC1
20.5	COc1ccccc1OCCN1CCN(c2ccc(=O)n(CCN3CCN(c4ccccc4Cl)CC3)n2)CC1
13.3	COc1ccccc1N1CCN(CCn2ncc(N3CCN(C(=O)c4ccco4)CC3)c(Cl)c2=O)CC1
20.3	O=C(c1ccco1)N1CCN(c2ccc(=O)n(CCCN3CCN(c4ccccc4Cl)CC3)n2)CC1
6.4	COc1ccccc1OCCN1CCN(c2cnn(CCCCCN3CCN(c4ccccc4Cl)CC3)c(=O)c2Cl)CC1
33.2	COc1ccccc1OCCN1CCN(c2ccc(=O)n(CCN3CCN(c4ccccc4OC)CC3)n2)CC1
34.8	COc1ccccc1OCCN1CCN(c2ccc(=O)n(CCCN3CCN(c4ccccc4OC)CC3)n2)CC1
12.3	COc1ccccc1N1CCN(CCCCCn2ncc(N3CCN(C(=O)c4ccco4)CC3)c(Cl)c2=O)CC1
7.9	O=C(c1ccco1)N1CCN(c2ccc(=O)n(CCCCCN3CCN(c4ccccc4Cl)CC3)n2)CC1
46.5	COc1ccccc1OCCN1CCN(c2ccc(=O)n(CCCN3CCN(c4ccccc4Cl)CC3)n2)CC1
5.4	COc1ccccc1OCCN1CCN(c2ccc(=O)n(CCCCCN3CCN(c4ccccc4OC)CC3)n2)CC1
9.8	COc1ccccc1N1CCN(CCCn2nc(N3CCN(C(=O)c4ccco4)CC3)ccc2=O)CC1
10.2	COc1ccccc1OCCN1CCN(c2ccc(=O)n(CCCCCCN3CCN(c4ccccc4OC)CC3)n2)CC1
17	COc1ccccc1OCCN1CCN(c2cnn(CCCN3CCN(c4ccccc4OC)CC3)c(=O)c2Cl)CC1
3.2	COc1ccccc1OCCN1CCN(c2cnn(CCCCCCCN3CCN(c4ccccc4OC)CC3)c(=O)c2Cl)CC1
274	COc1ccccc1N1CCN(CCCCCCCn2ncc(N3CCN(C(=O)c4ccco4)CC3)c(Cl)c2=O)CC1
5.6	COc1ccccc1N1CCN(CCCCCCn2nc(N3CCN(C(=O)c4ccco4)CC3)ccc2=O)CC1

Target: T1, Adrenergic receptor alpha-1 (Rattus norvegicus, UniProt P15823+P23944+P43140)
T1 sequence (P15823 whole entry): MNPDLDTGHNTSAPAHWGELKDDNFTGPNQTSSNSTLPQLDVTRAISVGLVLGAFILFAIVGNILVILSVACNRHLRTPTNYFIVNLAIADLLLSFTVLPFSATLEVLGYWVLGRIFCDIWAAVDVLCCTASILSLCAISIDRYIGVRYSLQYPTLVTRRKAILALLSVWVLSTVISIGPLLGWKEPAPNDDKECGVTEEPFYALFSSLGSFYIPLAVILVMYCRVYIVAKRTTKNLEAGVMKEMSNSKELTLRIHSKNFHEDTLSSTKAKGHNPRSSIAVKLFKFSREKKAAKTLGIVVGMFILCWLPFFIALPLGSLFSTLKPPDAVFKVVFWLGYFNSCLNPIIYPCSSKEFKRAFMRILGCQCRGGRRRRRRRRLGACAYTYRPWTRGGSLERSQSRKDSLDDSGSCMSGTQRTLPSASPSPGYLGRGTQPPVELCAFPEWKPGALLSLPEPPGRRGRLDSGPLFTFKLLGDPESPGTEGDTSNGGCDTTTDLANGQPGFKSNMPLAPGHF
T1 sequence (P23944 whole entry): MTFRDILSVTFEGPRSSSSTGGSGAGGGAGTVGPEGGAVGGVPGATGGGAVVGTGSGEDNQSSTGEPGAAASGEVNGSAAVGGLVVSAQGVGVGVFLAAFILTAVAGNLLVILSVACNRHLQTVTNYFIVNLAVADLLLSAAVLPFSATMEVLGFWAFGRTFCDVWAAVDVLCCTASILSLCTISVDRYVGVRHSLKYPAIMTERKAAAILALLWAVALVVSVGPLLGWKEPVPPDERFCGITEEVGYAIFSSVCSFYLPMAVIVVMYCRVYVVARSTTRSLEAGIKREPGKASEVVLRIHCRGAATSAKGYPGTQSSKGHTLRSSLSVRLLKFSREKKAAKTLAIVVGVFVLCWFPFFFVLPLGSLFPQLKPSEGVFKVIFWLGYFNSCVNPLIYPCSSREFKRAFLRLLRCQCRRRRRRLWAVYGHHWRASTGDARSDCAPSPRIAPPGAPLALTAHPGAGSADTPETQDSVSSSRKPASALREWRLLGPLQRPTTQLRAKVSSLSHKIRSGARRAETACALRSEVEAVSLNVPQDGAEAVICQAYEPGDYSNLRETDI
T1 sequence (P43140 whole entry): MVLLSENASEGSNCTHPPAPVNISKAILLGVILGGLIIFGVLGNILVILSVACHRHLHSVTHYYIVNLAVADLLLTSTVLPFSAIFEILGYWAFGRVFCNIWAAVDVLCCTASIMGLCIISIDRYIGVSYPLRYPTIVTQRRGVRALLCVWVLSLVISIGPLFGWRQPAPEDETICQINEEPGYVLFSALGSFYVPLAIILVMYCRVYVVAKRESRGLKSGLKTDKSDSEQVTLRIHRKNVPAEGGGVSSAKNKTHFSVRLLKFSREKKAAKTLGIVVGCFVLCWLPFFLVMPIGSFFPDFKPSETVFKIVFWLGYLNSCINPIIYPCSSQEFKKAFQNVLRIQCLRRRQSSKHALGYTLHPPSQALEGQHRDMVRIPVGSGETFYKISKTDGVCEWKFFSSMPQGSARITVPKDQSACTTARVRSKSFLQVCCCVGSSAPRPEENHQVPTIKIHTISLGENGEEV
Assay: Binding affinity towards alpha-1 adrenergic receptor in rat cortex membrane using [3H]-prazosin radioligand
Format: cell membranes

Ki [nM]	SMILES
54.7	COc1ccccc1N1CCN(CCCCCCCn2nc(N3CCN(C(=O)c4ccco4)CC3)ccc2=O)CC1
18	COc1ccccc1OCCN1CCN(c2ccc(=O)n(CCN3CCN(c4ccccc4Cl)CC3)n2)CC1
33	COc1ccccc1N1CCN(CCn2ncc(N3CCN(C(=O)c4ccco4)CC3)c(Cl)c2=O)CC1
12.8	O=C(c1ccco1)N1CCN(c2ccc(=O)n(CCCN3CCN(c4ccccc4Cl)CC3)n2)CC1
4.5	COc1ccccc1OCCN1CCN(c2cnn(CCCCCN3CCN(c4ccccc4Cl)CC3)c(=O)c2Cl)CC1
38	COc1ccccc1OCCN1CCN(c2ccc(=O)n(CCN3CCN(c4ccccc4OC)CC3)n2)CC1
7.3	COc1ccccc1OCCN1CCN(c2ccc(=O)n(CCCN3CCN(c4ccccc4OC)CC3)n2)CC1
1.9	COc1ccccc1N1CCN(CCCCCn2ncc(N3CCN(C(=O)c4ccco4)CC3)c(Cl)c2=O)CC1
13.3	O=C(c1ccco1)N1CCN(c2ccc(=O)n(CCCCCN3CCN(c4ccccc4Cl)CC3)n2)CC1
6.8	COc1ccccc1OCCN1CCN(c2ccc(=O)n(CCCN3CCN(c4ccccc4Cl)CC3)n2)CC1
12.9	COc1ccccc1OCCN1CCN(c2ccc(=O)n(CCCCCN3CCN(c4ccccc4OC)CC3)n2)CC1
64.5	COc1ccccc1N1CCN(CCCn2nc(N3CCN(C(=O)c4ccco4)CC3)ccc2=O)CC1
7	COc1ccccc1OCCN1CCN(c2ccc(=O)n(CCCCCCN3CCN(c4ccccc4OC)CC3)n2)CC1
14.5	COc1ccccc1OCCN1CCN(c2cnn(CCCN3CCN(c4ccccc4OC)CC3)c(=O)c2Cl)CC1
1.4	COc1ccccc1OCCN1CCN(c2cnn(CCCCCCCN3CCN(c4ccccc4OC)CC3)c(=O)c2Cl)CC1
1.9	COc1ccccc1N1CCN(CCCCCCCn2ncc(N3CCN(C(=O)c4ccco4)CC3)c(Cl)c2=O)CC1
17.8	COc1ccccc1N1CCN(CCCCCCn2nc(N3CCN(C(=O)c4ccco4)CC3)ccc2=O)CC1

Target: T2, Adrenergic receptor alpha-2 (Rattus norvegicus, UniProt P22086+P19328+P22909)
T2 sequence (P22086 whole entry): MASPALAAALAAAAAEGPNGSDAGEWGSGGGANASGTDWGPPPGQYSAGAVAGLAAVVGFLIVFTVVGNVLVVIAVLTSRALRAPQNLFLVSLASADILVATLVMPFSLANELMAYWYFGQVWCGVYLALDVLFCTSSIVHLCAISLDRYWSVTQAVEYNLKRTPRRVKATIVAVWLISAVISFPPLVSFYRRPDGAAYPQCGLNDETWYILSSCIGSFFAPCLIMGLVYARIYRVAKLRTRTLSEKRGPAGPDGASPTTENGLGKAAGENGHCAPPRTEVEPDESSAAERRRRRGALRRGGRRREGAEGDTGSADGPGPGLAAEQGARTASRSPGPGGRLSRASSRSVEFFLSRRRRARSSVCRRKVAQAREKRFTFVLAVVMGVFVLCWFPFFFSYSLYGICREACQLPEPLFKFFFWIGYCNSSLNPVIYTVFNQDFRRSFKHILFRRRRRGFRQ
T2 sequence (P19328 whole entry): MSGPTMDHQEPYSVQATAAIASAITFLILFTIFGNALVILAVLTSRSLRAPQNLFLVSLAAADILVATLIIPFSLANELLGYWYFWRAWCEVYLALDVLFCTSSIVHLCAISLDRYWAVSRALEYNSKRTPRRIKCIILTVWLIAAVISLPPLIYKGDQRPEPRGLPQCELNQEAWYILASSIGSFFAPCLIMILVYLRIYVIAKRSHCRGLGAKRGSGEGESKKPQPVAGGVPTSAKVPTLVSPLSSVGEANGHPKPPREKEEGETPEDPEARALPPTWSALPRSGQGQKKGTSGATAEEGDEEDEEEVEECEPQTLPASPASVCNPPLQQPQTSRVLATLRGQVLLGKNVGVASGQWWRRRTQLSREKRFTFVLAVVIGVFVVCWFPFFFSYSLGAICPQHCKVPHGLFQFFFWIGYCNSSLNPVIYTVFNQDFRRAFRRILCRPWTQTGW
T2 sequence (P22909 whole entry): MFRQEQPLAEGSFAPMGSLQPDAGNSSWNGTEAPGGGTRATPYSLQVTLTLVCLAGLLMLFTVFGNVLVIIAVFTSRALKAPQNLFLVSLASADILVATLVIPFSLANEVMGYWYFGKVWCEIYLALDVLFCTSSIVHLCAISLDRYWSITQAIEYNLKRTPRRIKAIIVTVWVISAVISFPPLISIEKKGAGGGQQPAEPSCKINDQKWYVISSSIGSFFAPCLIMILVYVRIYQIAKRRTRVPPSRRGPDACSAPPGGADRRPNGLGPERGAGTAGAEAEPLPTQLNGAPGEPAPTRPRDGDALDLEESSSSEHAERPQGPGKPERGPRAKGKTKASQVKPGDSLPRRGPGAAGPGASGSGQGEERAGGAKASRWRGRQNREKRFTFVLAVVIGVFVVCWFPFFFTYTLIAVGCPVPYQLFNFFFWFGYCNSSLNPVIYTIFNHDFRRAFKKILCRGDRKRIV
Assay: Binding affinity towards alpha-2 adrenergic receptor in rat cortex membrane using [3H]rauwolscine radioligand
Format: cell membranes

Ki [nM]	SMILES
96	COc1ccccc1N1CCN(CCCCCCCn2nc(N3CCN(C(=O)c4ccco4)CC3)ccc2=O)CC1
370	COc1ccccc1OCCN1CCN(c2ccc(=O)n(CCN3CCN(c4ccccc4Cl)CC3)n2)CC1
440	COc1ccccc1N1CCN(CCn2ncc(N3CCN(C(=O)c4ccco4)CC3)c(Cl)c2=O)CC1
260	O=C(c1ccco1)N1CCN(c2ccc(=O)n(CCCN3CCN(c4ccccc4Cl)CC3)n2)CC1
29	COc1ccccc1OCCN1CCN(c2cnn(CCCCCN3CCN(c4ccccc4Cl)CC3)c(=O)c2Cl)CC1
1261	COc1ccccc1OCCN1CCN(c2ccc(=O)n(CCN3CCN(c4ccccc4OC)CC3)n2)CC1
254	COc1ccccc1OCCN1CCN(c2ccc(=O)n(CCCN3CCN(c4ccccc4OC)CC3)n2)CC1
23.3	COc1ccccc1N1CCN(CCCCCn2ncc(N3CCN(C(=O)c4ccco4)CC3)c(Cl)c2=O)CC1
105	O=C(c1ccco1)N1CCN(c2ccc(=O)n(CCCCCN3CCN(c4ccccc4Cl)CC3)n2)CC1
316	COc1ccccc1OCCN1CCN(c2ccc(=O)n(CCCN3CCN(c4ccccc4Cl)CC3)n2)CC1
69.8	COc1ccccc1OCCN1CCN(c2ccc(=O)n(CCCCCN3CCN(c4ccccc4OC)CC3)n2)CC1
631	COc1ccccc1N1CCN(CCCn2nc(N3CCN(C(=O)c4ccco4)CC3)ccc2=O)CC1
71.8	COc1ccccc1OCCN1CCN(c2ccc(=O)n(CCCCCCN3CCN(c4ccccc4OC)CC3)n2)CC1
245	COc1ccccc1OCCN1CCN(c2cnn(CCCN3CCN(c4ccccc4OC)CC3)c(=O)c2Cl)CC1
4.6	COc1ccccc1OCCN1CCN(c2cnn(CCCCCCCN3CCN(c4ccccc4OC)CC3)c(=O)c2Cl)CC1
520	COc1ccccc1N1CCN(CCCCCCCn2ncc(N3CCN(C(=O)c4ccco4)CC3)c(Cl)c2=O)CC1
100	COc1ccccc1N1CCN(CCCCCCn2nc(N3CCN(C(=O)c4ccco4)CC3)ccc2=O)CC1
